Reference: US8691859B2 (priority 2005, dated 2014)
Converted amounts (≈) assume the structure as drawn.

Columns and labels:
anthrax lethal factor = anthrax lethal factor (Bacillus anthracis, UniProt P15917); type: biochemical
[1] = tested on: B. anthracis GFP sterne spores; assay: microbe, parasite or virus in culture; type: cell-based; conditions: for MIC: Bacillus anthracis, read-out: MIC B. anthracis spores
[2] = tested on: B. anthracis GFP sterne vegetative cells; assay: microbe, parasite or virus in culture; type: cell-based; conditions: Bacillus anthracis, read-out: MIC B. anthracis vegetative cells
B. anthracis Ames = assay: microbe, parasite or virus in culture; type: cell-based; conditions: Bacillus anthracis
E. feacalis = assay: organism not typed; type: cell-based
Ames spores [3] = assay: microbe, parasite or virus in culture; type: cell-based, B. anthracis; conditions: Bacillus anthracis
B. cepacia = assay: microbe, parasite or virus in culture; type: cell-based; conditions: Burkholderia cepacia
K. pneumoniae = assay: microbe, parasite or virus in culture; type: cell-based; conditions: Klebsiella pneumoniae
Ames spores [4] = assay: microbe, parasite or virus in culture; type: cell-based, B. anthracis; conditions: Bacillus anthracis; remark: listed apart in the source
B. megaterium = assay: microbe, parasite or virus in culture; type: cell-based; conditions: Priestia megaterium
Burkholderia mallei = assay: microbe, parasite or virus in culture; type: cell-based
B. brevis = assay: microbe, parasite or virus in culture; type: cell-based; conditions: Brevibacillus brevis
Y. pestis = assay: microbe, parasite or virus in culture; type: cell-based; conditions: Yersinia pestis
P. aeruginosa PAO1 = assay: microbe, parasite or virus in culture; type: cell-based; conditions: Pseudomonas aeruginosa
S. aureus = assay: microbe, parasite or virus in culture; type: cell-based; conditions: Staphylococcus aureus
Sterne spores = type: cell-based, B. anthracis
[5] = tested on: Methicillin resistant S. aureus; assay: microbe, parasite or virus in culture; type: cell-based; conditions: Staphylococcus aureus
B. pumilus = assay: microbe, parasite or virus in culture; type: cell-based; conditions: Bacillus pumilus
[6] = tested on: Burkholderia pseudomallei; assay: microbe, parasite or virus in culture; type: cell-based
B. subtilis = assay: microbe, parasite or virus in culture; type: cell-based; conditions: Bacillus subtilis
B. licheniformis = assay: microbe, parasite or virus in culture; type: cell-based; conditions: Bacillus licheniformis
E. coli = assay: microbe, parasite or virus in culture; type: cell-based; conditions: Escherichia coli
[7] = tested on: Burkholderia thailandensis; assay: microbe, parasite or virus in culture; type: cell-based
[8] = molecular target: botulinum neurotoxin serotype A light chain (Clostridium botulinum, UniProt P0DPI0); type: biochemical, Clostridium botulinium
Chain of botulinum neurotoxin serotype A light chain (P0DPI0 2-448 limits assumed): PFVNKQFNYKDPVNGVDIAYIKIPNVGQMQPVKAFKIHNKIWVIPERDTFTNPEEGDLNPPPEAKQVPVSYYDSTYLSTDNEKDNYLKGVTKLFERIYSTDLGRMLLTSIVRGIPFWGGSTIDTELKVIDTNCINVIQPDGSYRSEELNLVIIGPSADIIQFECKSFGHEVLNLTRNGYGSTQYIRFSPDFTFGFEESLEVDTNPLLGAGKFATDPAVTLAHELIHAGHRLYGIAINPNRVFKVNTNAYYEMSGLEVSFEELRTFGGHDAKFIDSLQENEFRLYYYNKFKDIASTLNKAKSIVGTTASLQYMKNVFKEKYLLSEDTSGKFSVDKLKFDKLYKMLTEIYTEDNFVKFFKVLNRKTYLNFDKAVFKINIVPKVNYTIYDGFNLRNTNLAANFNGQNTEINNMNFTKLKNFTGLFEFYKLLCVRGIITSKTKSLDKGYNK

B. vollum [9] = assay: organism not typed; type: cell-based
B. vollum [10] = assay: organism not typed; type: cell-based; remark: listed apart in the source

Chain of anthrax lethal factor (P15917 34-809 limits assumed): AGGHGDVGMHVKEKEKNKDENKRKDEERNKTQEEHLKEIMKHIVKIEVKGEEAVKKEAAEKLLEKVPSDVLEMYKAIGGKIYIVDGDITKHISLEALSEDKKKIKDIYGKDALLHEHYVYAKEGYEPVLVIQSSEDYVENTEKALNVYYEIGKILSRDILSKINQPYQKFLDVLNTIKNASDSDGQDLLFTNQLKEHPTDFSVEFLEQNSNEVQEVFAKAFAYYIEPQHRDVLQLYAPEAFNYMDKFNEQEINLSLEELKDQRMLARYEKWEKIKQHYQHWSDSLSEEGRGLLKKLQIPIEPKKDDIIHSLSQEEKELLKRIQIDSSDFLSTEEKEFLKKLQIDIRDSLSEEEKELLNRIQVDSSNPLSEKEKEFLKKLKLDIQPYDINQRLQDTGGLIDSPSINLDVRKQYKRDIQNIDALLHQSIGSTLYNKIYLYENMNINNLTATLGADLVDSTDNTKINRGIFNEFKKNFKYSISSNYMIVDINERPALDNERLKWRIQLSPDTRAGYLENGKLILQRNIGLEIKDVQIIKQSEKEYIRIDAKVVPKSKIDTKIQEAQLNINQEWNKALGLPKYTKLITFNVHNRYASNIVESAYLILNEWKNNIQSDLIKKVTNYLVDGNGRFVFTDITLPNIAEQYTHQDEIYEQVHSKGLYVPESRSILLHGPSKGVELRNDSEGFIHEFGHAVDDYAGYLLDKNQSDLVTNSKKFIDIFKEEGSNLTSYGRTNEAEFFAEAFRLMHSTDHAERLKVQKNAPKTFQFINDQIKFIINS

N=C(N)c1ccc(/C=C/c2cc3ccc(C(=N)N)cc3[nH]2)cc1 [NSC 317886, 2-[(E)-2-(4-carbamimidoylphenyl)ethenyl]-1H-indole-6-carboximidamide]
inhibition of the protease activity of anthrax lethal factor (anthrax lethal factor): inhibit | MIC [1]: 7.52 µg/mL (≈ 24.8 µM) | MIC [2]: 15 µg/mL (≈ 49.5 µM)

C(=C\c1cc2ccc(C3=NCCN3)cc2[nH]1)/c1ccc(C2=NCCN2)cc1 [NSC 317887, 6-(4,5-dihydro-1H-imidazol-2-yl)-2-[(E)-2-[4-(4,5-dihydro-1H-imidazol-2-yl)phenyl]ethenyl]-1H-indole]
inhibition of the protease activity of anthrax lethal factor (anthrax lethal factor): inhibit | MIC [1]: 8.56 µg/mL (≈ 24.1 µM) | MIC [2]: > 17.1 µg/mL

c1cc2cc(-c3ccc4cc(C5=NCCN5)[nH]c4c3)[nH]c2cc1C1=NCCN1 [NSC 330687, 2-(4,5-dihydro-1H-imidazol-2-yl)-6-[6-(4,5-dihydro-1H-imidazol-2-yl)-1H-indol-2-yl]-1H-indole]
MIC (B. anthracis Ames): 1.1 µg/mL (≈ 2.99 µM) | MIC (E. feacalis): 2.21 µg/mL (≈ 5.98 µM) | MIC (Ames spores [3]): 0.276 µg/mL (≈ 0.749 µM) | MIC (B. cepacia): 4.41 µg/mL (≈ 12 µM) | MIC (K. pneumoniae): > 17.6 µg/mL | MIC [1]: 0.551 µg/mL (≈ 1.5 µM) | MBC (Ames spores [4]): 0.276 µg/mL (≈ 0.749 µM) | MIC (B. megaterium): 0.551 µg/mL (≈ 1.5 µM) | MIC (Burkholderia mallei): 8.82 µg/mL (≈ 23.9 µM) | MIC (B. brevis): 0.276 µg/mL (≈ 0.749 µM) | MIC (Y. pestis): 8.82 µg/mL (≈ 23.9 µM) | MIC [2]: 1.1 µg/mL (≈ 2.99 µM) | MIC (P. aeruginosa PAO1): 17.6 µg/mL (≈ 47.9 µM) | MIC (S. aureus): 1.1 µg/mL (≈ 2.99 µM) | effect on spore germination (Sterne spores): results to those of NSC 317881 were obtained | MIC [5]: 2.2 µg/mL (≈ 5.97 µM) | MIC (B. pumilus): 0.138 µg/mL (≈ 0.375 µM) | MIC [6]: > 17.6 µg/mL | MIC (B. subtilis): 0.551 µg/mL (≈ 1.5 µM) | MIC (B. licheniformis): 2.21 µg/mL (≈ 5.99 µM) | MIC (E. coli): 1.1 µg/mL (≈ 2.99 µM) | MIC [7]: 17.6 µg/mL (≈ 47.9 µM)

C(=C\c1cc2ccc(C3=NCCN3)cc2[nH]1)/c1ccc2cc(C3=NCCN3)[nH]c2c1 [NSC 341907, 6-(4,5-dihydro-1H-imidazol-2-yl)-2-[(E)-2-[2-(4,5-dihydro-1H-imidazol-2-yl)-1H-indol-6-yl]ethenyl]-1H-indole]
inhibition of the protease activity of anthrax lethal factor (anthrax lethal factor): inhibit | MIC [1]: 9.34 µg/mL (≈ 23.7 µM) | MIC [2]: 18.7 µg/mL (≈ 47.4 µM)

NC(N)=NN=Cc1ccc2cc(-c3ccc(/C=N/N=C(N)N)cc3)sc2c1 [NSC 341909, 2-[[2-[4-[(E)-(diaminomethylidenehydrazinylidene)methyl]-phenyl]benzothiophen-6-yl]methylideneamino]guanidine]
inhibition of the protease activity of anthrax lethal factor (anthrax lethal factor): inhibit | MIC [1]: 4.51 µg/mL (≈ 11.9 µM) | inhibition of botulinum neurotoxin serotype A light chain metalloprotease activity [8]: inhibit | MIC [2]: 18 µg/mL (≈ 47.7 µM)

c1cc(-c2[nH]c3cc(C4=NCCN4)ccc3c2-c2cc3ccc(C4=NCCN4)cc3[nH]2)ccc1C1=NCCN1 [NSC 341911, 6-(4,5-dihydro-1H-imidazol-2-yl)-3-[6-(4,5-dihydro-1H-imidazol-2-yl)-1H-indol-2-yl]-2-[4-(4,5-dihydro-1H-imidazol-2-yl)phenyl]-1H-indole]
inhibition of the protease activity of anthrax lethal factor (anthrax lethal factor): inhibit | MIC B. anthracis spores [1]: 24.88 µg/mL (≈ 48.5 µM) | MIC [2]: 24.9 µg/mL (≈ 48.5 µM)

c1cc2cc(-c3ccc4cc(-c5ccc6oc(C7=NCCN7)cc6c5)[nH]c4c3)[nH]c2cc1C1=NCCN1 [NSC 369718, 6-(4,5-dihydro-1H-imidazol-2-yl)-2-[2-[2-(4,5-dihydro-1H-imidazol-2-yl)benzofuran-5-yl]-1H-indol-6-yl]-1H-indole]
MIC (B. anthracis Ames): 1.39 µg/mL (≈ 2.87 µM) | MIC (E. feacalis): 0.696 µg/mL (≈ 1.44 µM) | MIC (Ames spores [3]): 0.174 µg/mL (≈ 0.359 µM) | MIC (B. cepacia): 22.3 µg/mL (≈ 46 µM) | MIC (K. pneumoniae): 5.57 µg/mL (≈ 11.5 µM) | MIC [1]: 0.348 µg/mL (≈ 0.718 µM) | MIC (B. vollum [9]): 0.348 µg/mL (≈ 0.718 µM) | MBC (Ames spores [4]): 0.174 µg/mL (≈ 0.359 µM) | MIC (B. megaterium): 0.348 µg/mL (≈ 0.718 µM) | MIC (Burkholderia mallei): 11.1 µg/mL (≈ 23 µM) | MBC (B. vollum [10]): 0.348 µg/mL (≈ 0.718 µM) | MIC (B. brevis): 0.174 µg/mL (≈ 0.359 µM) | MIC (Y. pestis): 1.39 µg/mL (≈ 2.87 µM) | MIC [2]: 0.696 µg/mL (≈ 1.44 µM) | MIC (P. aeruginosa PAO1): 1.39 µg/mL (≈ 2.87 µM) | MIC (S. aureus): 0.696 µg/mL (≈ 1.44 µM) | effect on spore germination (Sterne spores): results to those of NSC 317881 were obtained | MIC [5]: 2.79 µg/mL (≈ 5.75 µM) | MIC (B. pumilus): 0.348 µg/mL (≈ 0.718 µM) | MIC [6]: 2.79 µg/mL (≈ 5.75 µM) | MIC (B. subtilis): 0.348 µg/mL (≈ 0.718 µM) | MIC (B. licheniformis): 1.39 µg/mL (≈ 2.87 µM) | MIC (E. coli): 1.39 µg/mL (≈ 2.87 µM) | MIC [7]: 2.78 µg/mL (≈ 5.75 µM)
